Data taken from patent publication US20170232083A1, “METHODS OF DIAGNOSIS AND TREATMENT OF CELIAC DISEASE IN CHILDREN” (priority 2014, published 2017).

Assays:
[1] = test system: PBMC (polyclonal gluten-specific T cells) of paediatric and adult CD patients; assay: IFN-γ ELISpot of PBMC after 3 day oral wheat challenge (SFU, % of maximal peptide response, dominance scores, EC50; Examples 5-6); assay type: cell-based, human; settings: for Dominance score 3-5yrs (n = 9): CD children 3-5yrs, n = 9, following wheat challenge; for Dominance score 3-5yrs (n = 9) / Dominance score 6-10yrs (n = 10) / Dominance score 11-18yrs (n = 11): mean percentage of maximal peptide response; for Dominance score 6-10yrs (n = 10): CD children 6-10yrs, n = 10, following wheat challenge; for Dominance score 11-18yrs (n = 11): CD children 11-18yrs, n = 11, following wheat challenge; for Dominance score Mean all ages: CD children, following wheat challenge (Table 9); for Dominance scores 3-5 yrs: children with celiac disease 3-5 yrs after wheat challenge (Table 14); for Dominance scores 6-10 yrs: children with celiac disease 6-10 yrs after wheat challenge (Table 14); for Dominance scores 11-18 yrs: children with celiac disease 11-18 yrs after wheat challenge (Table 14); for Dominance scores Mean all ages: mean of all subjects (Table 14); for IFN-γ ELISpot response: after oral wheat challenge
[2] = test system: PBMC (polyclonal gluten-specific T cells) of paediatric and adult CD patients; settings: corresponding adult data shown for comparison (14); cited from earlier work
[3] = patient A, 11-17 yrs, cut-off 10 SFU
[4] = patient D, max peptide 30.5 SFU
[5] = patient E, H, 11-17 yrs, cut-off 10 SFU
[6] = patient F, 11-17 yrs, cut-off 10 SFU
[7] = patient G, 11-17 yrs, cut-off 10 SFU
[8] = patient H (HLA-DQ2.5 homozygote), 3-5yrs, cut-off 10 SFU
[9] = patient H, 11-17 yrs, cut-off 10 SFU
[10] = patient ID not given, 11-17 yrs, cut-off 10 SFU
[11] = patient ID not given, max peptide 95 SFU
[12] = patient N, 3-5yrs, cut-off 10 SFU
[13] = patient P, 11-17 yrs, cut-off 21.6 SFU
[14] = patient Q, 11-17 yrs, cut-off 10 SFU
[15] = patient U, H, 11-17 yrs, cut-off 10 SFU
[16] = patient V, 6-10 yrs, cut-off 10 SFU
[17] = patient Y, 6-10 yrs, cut-off 10 SFU
[18] = patient eleven, 6-10 yrs, cut-off 10 SFU
[19] = patient five, max peptide 48 SFU
[20] = patient four, 3-5yrs, cut-off 10 SFU
[21] = patient seven, 6-10 yrs, cut-off 10.5 SFU
[22] = patient ten, 3-5yrs, cut-off 10 SFU
[23] = patient three, 6-10 yrs, cut-off 10.5 SFU
[24] = patient twelve, 11-17 yrs, cut-off 10 SFU
[25] = patient two, 3-5yrs, cut-off 10 SFU
[26] = patient two, max peptide 60 SFU

With “QPFPQPEQPFPWQ [Peptide W03, contains DQ2.5-glia-w1 and w2]” the “magnitude of T cell responses, HLA-DQ2.5 homozygous vs heterozygous” value [1] was “significantly greater”, the “Dominance score 3-5yrs (n = 9)” value [1] was 66.6 and the “Dominance score 6-10yrs (n = 10)” value [1] was 51.5. For the same substance, the “Dominance score 11-18yrs (n = 11)” value [1] was 46.5, the “Dominance score Mean all ages” value [1] was 54.2 and the “dominance hierarchy across all age groupings” value ([1]; Example 5) was “most dominant three peptides”. The “CD children responding (polyclonal T cells after oral wheat challenge)” value ([1]; Example 5, n=22) was 68.2%, the “dominance hierarchy across all age groups” value ([1]; Example 6) was “most dominant four peptides” and the “CD children responding (polyclonal T cells induced by oral wheat challenge)” value ([1]; Example 6, n=22) was 68%. The “response to native vs deamidated form” value ([1]; all age groups) was “Deamidation enhanced the response”, the “Dominance scores 3-5 yrs” value [1] was 65 and the “Dominance scores 6-10 yrs” value [1] was 51. For the same substance, the “Dominance scores 11-18 yrs” value [1] was 46, the “Dominance scores Mean all ages” value [1] was 54 and the “IFN-γ ELISpot responses Day 0 prior to vs Day 6 after wheat challenge” value ([1]; p<0.05, Kruskal Wallis) was “Significant gluten-specific responses were observed on Day 6 only”. The “IFN-γ ELISpot response” value [1, 3] was 5 SFU, the “Significant response as percentage of maximal peptide SFU” value (shortened to “Significant response as percentage”) [1, 4] was “′′′ (41-70% = ′′′)” and the “IFN-γ ELISpot response” value [1, 5] was 61 SFU. The “Significant response as percentage” value ([1]; patient E, max peptide 224 SFU) was “′′ (21-40% = ′′)”, the “IFN-γ ELISpot response” value [1, 6] was 77 SFU and the “Significant response as percentage” value ([1]; patient F, max peptide 178 SFU) was “′′′ (41-70% = ′′′)”. The “IFN-γ ELISpot response” value [1, 7] was 5 SFU, the “IFN-γ ELISpot response” value [1, 8] was 48 SFU and the “IFN-γ ELISpot response” value [1, 9] was 6 SFU. For the same substance, the “IFN-γ ELISpot response” value [1, 10] was 83 SFU, the “Significant response as percentage” value [1, 11] was “+ (>70% = +)” and the “Significant response as percentage” value ([1]; patient J, max peptide 196 SFU) was “′′′ (41-70% = ′′′)”. The “Significant response as percentage” value ([1]; patient K, max peptide 53 SFU) was “′′ (21-40% = ′′)”, the “Significant response as percentage” value ([1]; patient M, max peptide 48 SFU) was “+ (>70% = +)” and the “IFN-γ ELISpot response” value [1, 12] was 19 SFU. For the same substance, the “Significant response as percentage” value ([1]; patient N, max peptide 19 SFU) was “+ (>70% = +)”, the “IFN-γ ELISpot response” value [1, 13] was 43 SFU and the “Significant response as percentage” value ([1]; patient P, max peptide 64 SFU) was “′′′ (41-70% = ′′′)”. For the same substance, the “IFN-γ ELISpot response” value [1, 14] was 54 SFU, the “Significant response as percentage” value ([1]; patient Q, max peptide 97 SFU) was “′′′ (41-70% = ′′′)” and the “IFN-γ ELISpot response” value [1, 15] was 34 SFU. The “Significant response as percentage” value ([1]; patient U, max peptide 81 SFU) was “′′′ (41-70% = ′′′)”, the “IFN-γ ELISpot response” value [1, 16] was 34 SFU and the “Significant response as percentage” value ([1]; patient V, max peptide 35 SFU) was “+ (>70% = +)”. For the same substance, the “IFN-γ ELISpot response” value [1, 17] was 8 SFU, the “IFN-γ ELISpot response” value [1, 18] was 6 SFU and the “Significant response as percentage” value [1, 19] was “+ (>70% = +)”. The “IFN-γ ELISpot response” value [1, 20] was 18 SFU, the “Significant response as percentage” value ([1]; patient four, max peptide 44 SFU) was “′′′ (41-70% = ′′′)” and the “IFN-γ ELISpot response” value [1, 21] was 4 SFU. The “IFN-γ ELISpot response” value [1, 22] was 8 SFU, the “IFN-γ ELISpot response” value [1, 23] was 13 SFU and the “IFN-γ ELISpot response” value [1, 24] was 17 SFU. For the same substance, the “IFN-γ ELISpot response” value [1, 25] was 60 SFU, the “Significant response as percentage” value [1, 26] was “+ (>70% = +)” and the “Dominance scores 18+ yrs” value [2] was 35.
With QPFPQPQQPIPVQ [Peptide W04] the “Dominance score 3-5yrs (n = 9)” value [1] was 44.5, the “Dominance score 6-10yrs (n = 10)” value [1] was 44.2 and the “Dominance score 11-18yrs (n = 11)” value [1] was 47.5. The “Dominance score Mean all ages” value [1] was 45.6, the “Dominance scores 3-5 yrs” value [1] was 43 and the “Dominance scores 6-10 yrs” value [1] was 44. For the same substance, the “Dominance scores 11-18 yrs” value [1] was 48, the “Dominance scores Mean all ages” value [1] was 45 and the “IFN-γ ELISpot response” value [1, 3] was 1 SFU. For the same substance, the “Significant response as percentage” value [1, 4] was “′′ (21-40% = ′′)”, the “IFN-γ ELISpot response” value [1, 5] was 51 SFU and the “Significant response as percentage” value ([1]; patient E, max peptide 224 SFU) was “′′ (21-40% = ′′)”. For the same substance, the “IFN-γ ELISpot response” value [1, 6] was 40 SFU, the “Significant response as percentage” value ([1]; patient F, max peptide 178 SFU) was “′′ (21-40% = ′′)” and the “IFN-γ ELISpot response” value [1, 7] was 4 SFU. The “IFN-γ ELISpot response” value [1, 8] was 9 SFU, the “IFN-γ ELISpot response” value [1, 9] was 4 SFU and the “IFN-γ ELISpot response” value [1, 10] was 65 SFU. The “Significant response as percentage” value [1, 11] was “′′′ (41-70% = ′′′)”, the “Significant response as percentage” value ([1]; patient J, max peptide 196 SFU) was “′′′ (41-70% = ′′′)” and the “Significant response as percentage” value ([1]; patient K, max peptide 53 SFU) was “′′ (21-40% = ′′)”. The “IFN-γ ELISpot response” value [1, 12] was 5 SFU, the “IFN-γ ELISpot response” value [1, 13] was 21 SFU and the “IFN-γ ELISpot response” value [1, 14] was 37 SFU. For the same substance, the “Significant response as percentage” value ([1]; patient Q, max peptide 97 SFU) was “′′ (21-40% = ′′)”, the “IFN-γ ELISpot response” value [1, 15] was 30 SFU and the “Significant response as percentage” value ([1]; patient U, max peptide 81 SFU) was “′′ (21-40% = ′′)”. For the same substance, the “IFN-γ ELISpot response” value [1, 16] was 11 SFU, the “Significant response as percentage” value ([1]; patient V, max peptide 35 SFU) was “′′ (21-40% = ′′)” and the “IFN-γ ELISpot response” value [1, 17] was 3 SFU. For the same substance, the “IFN-γ ELISpot response” value [1, 18] was 4 SFU, the “Significant response as percentage” value [1, 19] was “+ (>70% = +)” and the “IFN-γ ELISpot response” value [1, 20] was 9 SFU. For the same substance, the “IFN-γ ELISpot response” value [1, 21] was 13 SFU, the “Significant response as percentage” value ([1]; patient seven, max peptide 27 SFU) was “′′′ (41-70% = ′′′)” and the “IFN-γ ELISpot response” value [1, 22] was 9 SFU. The “IFN-γ ELISpot response” value [1, 23] was 136 SFU, the “IFN-γ ELISpot response” value [1, 24] was 12 SFU and the “IFN-γ ELISpot response” value [1, 25] was 17 SFU. The “Significant response as percentage” value [1, 26] was “′′ (21-40% = ′′)” and the “Dominance scores 18+ yrs” value [2] was 31.
For W05 (QPFPQPEQPFSQQ) [Peptide W05], the “Dominance score 3-5yrs (n = 9)” value [1] was 23.4, the “Dominance score 6-10yrs (n = 10)” value [1] was 33.3 and the “Dominance score 11-18yrs (n = 11)” value [1] was 27.1. The “Dominance score Mean all ages” value [1] was 28.6, the “Dominance scores 3-5 yrs” value [1] was 23 and the “Dominance scores 6-10 yrs” value [1] was 33. The “Dominance scores 11-18 yrs” value [1] was 27, the “Dominance scores Mean all ages” value [1] was 28 and the “Dominance scores 18+ yrs” value [2] was 15.
For W07 (QPFPQPEQPFCQQ) [Peptide W07], the “Dominance score 3-5yrs (n = 9)” value [1] was 38.2, the “Dominance score 6-10yrs (n = 10)” value [1] was 20.5 and the “Dominance score 11-18yrs (n = 11)” value [1] was 16.2. The “Dominance score Mean all ages” value [1] was 22.7, the “Dominance scores 3-5 yrs” value [1] was 40 and the “Dominance scores 6-10 yrs” value [1] was 20. For the same substance, the “Dominance scores 11-18 yrs” value [1] was 16, the “Dominance scores Mean all ages” value [1] was 24 and the “Dominance scores 18+ yrs” value [2] was 8.
With W08 (LQPFPQPELPYSQP) [Peptide W08] the “Dominance score 3-5yrs (n = 9)” value [1] was 42.1, the “Dominance score 6-10yrs (n = 10)” value [1] was 51.7 and the “Dominance score 11-18yrs (n = 11)” value [1] was 40.2. For the same substance, the “Dominance score Mean all ages” value [1] was 44.9, the “Dominance scores 3-5 yrs” value [1] was 45 and the “Dominance scores 6-10 yrs” value [1] was 52. The “Dominance scores 11-18 yrs” value [1] was 40, the “Dominance scores Mean all ages” value [1] was 45 and the “Dominance scores 18+ yrs” value [2] was 8.
With W13 (LQPFPQPELPYLQP) [Peptide W13] the “Dominance score 3-5yrs (n = 9)” value [1] was 29.3, the “Dominance score 6-10yrs (n = 10)” value [1] was 32.0 and the “Dominance score 11-18yrs (n = 11)” value [1] was 30.1. The “Dominance score Mean all ages” value [1] was 30.7, the “Dominance scores 3-5 yrs” value [1] was 34 and the “Dominance scores 6-10 yrs” value [1] was 32. For the same substance, the “Dominance scores 11-18 yrs” value [1] was 30, the “Dominance scores Mean all ages” value [1] was 32 and the “Dominance scores 18+ yrs” value [2] was 4.
For W16 (FPQPEQEFPQPQQ) [Peptide W16], the “Dominance score 3-5yrs (n = 9)” value [1] was 19.8, the “Dominance score 6-10yrs (n = 10)” value [1] was 47.3 and the “Dominance score 11-18yrs (n = 11)” value [1] was 26.1. For the same substance, the “Dominance score Mean all ages” value [1] was 32.6, the “Dominance scores 3-5 yrs” value [1] was 23 and the “Dominance scores 6-10 yrs” value [1] was 47. For the same substance, the “Dominance scores 11-18 yrs” value [1] was 26, the “Dominance scores Mean all ages” value [1] was 33 and the “Dominance scores 18+ yrs” value [2] was 0.
